Reference: ChEMBL document CHEMBL1201862, “PubChem BioAssay data set” (2004)
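96-well plates; 48 h exposure; 5 concentrations. Endpoints by linear interpolation between flanking doses. Not reached: highest tested concentration assigned. Abbreviation: GI50, concentration required for 50% inhibition of growth.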 The source made the active and inactive calls. No stated cut-off is given here; in the data, active = GI50 up to about 1.1 µM and inactive = higher.

Assays:
Assay in all cases: growth of human tumour cells (NCI), 48 h
786-0 = test system: 786-0
SK-OV-3 = test system: SK-OV-3
LOX IMVI = test system: LOX IMVI
DMS-114 = test system: DMS-114
NCI-H522 = test system: NCI-H522
A549 = test system: A549
RPMI-8226 = test system: RPMI-8226
SF-539 = test system: SF-539
K562 = test system: K562
SR = test system: SR
HCC 2998 = test system: HCC 2998
HOP-62 = test system: HOP-62
NCI-H23 = test system: NCI-H23
OVCAR-4 = test system: OVCAR-4
SNB-75 = test system: SNB-75
SK-MEL-2 = test system: SK-MEL-2
SNB-19 = test system: SNB-19
SF-268 = test system: SF-268
KM12 = test system: KM12
M19-MEL = test system: M19-MEL
UO-31 = test system: UO-31
HCT-116 = test system: HCT-116
HCT-15 = test system: HCT-15
COLO 205 = test system: COLO 205
SN12C = test system: SN12C
DLD-1 = test system: DLD-1
MOLT-4 = test system: MOLT-4
UACC-62 = test system: UACC-62
CAKI-1 = test system: CAKI-1
HT-29 = test system: HT-29
OVCAR-5 = test system: OVCAR-5
DMS-273 = test system: DMS-273
EKVX = test system: EKVX
KM-20L2 = test system: KM-20L2
SF-295 = test system: SF-295
SK-MEL-28 = test system: SK-MEL-28
OVCAR-8 = test system: OVCAR-8
LXFL 529 = test system: LXFL 529
SW-620 = test system: SW-620
NCI-H226 = test system: NCI-H226
OVCAR-3 = test system: OVCAR-3
ACHN = test system: ACHN
SK-MEL-5 = test system: SK-MEL-5
M14 = test system: M14
NCI-H460 = test system: NCI-H460
U-251 = test system: U-251
UACC-257 = test system: UACC-257
Malme-3M = test system: Malme-3M
CCRF-CEM = test system: CCRF-CEM
TK-10 = test system: TK-10
RXF 393 = test system: RXF 393
MDA-MB-435 = test system: MDA-MB-435
PC-3 = test system: PC-3
BT-549 = test system: BT-549
DU-145 = test system: DU-145
MCF7 = test system: MCF7
NCI/ADR-RES = test system: NCI/ADR-RES
HL-60 = test system: HL-60
MDA-N = test system: MDA-N
IGROV-1 = test system: IGROV-1
T47D = test system: T47D
HOP-92 = test system: HOP-92
Hs-578T = test system: Hs-578T
A498 = test system: A498
MDA-MB-231 = test system: MDA-MB-231

With O=c1[nH]c(=O)n(C2CC(O)C(CO)O2)cc1C#Cc1c(F)c(F)c(F)c(F)c1F (stereo not drawn) the GI50 (786-0) was > 100 µM (inactive), the GI50 (SK-OV-3) was > 100 µM (inactive) and the GI50 (LOX IMVI) was > 100 µM (inactive). The GI50 (DMS-114) was > 100 µM (inactive), the GI50 (NCI-H522) was > 10 µM (inactive) and the GI50 (A549) was > 100 µM (inactive). For the same molecule, the GI50 (RPMI-8226) was > 100 µM (inactive), the GI50 (SF-539) was > 100 µM (inactive) and the GI50 (K562) was > 100 µM (inactive). The GI50 (SR) was > 100 µM (inactive), the GI50 (HCC 2998) was > 100 µM (inactive) and the GI50 (HOP-62) was > 100 µM (inactive). The GI50 (NCI-H23) was > 100 µM (inactive), the GI50 (OVCAR-4) was > 100 µM (inactive) and the GI50 (SNB-75) was > 100 µM (inactive). For the same molecule, the GI50 (SK-MEL-2) was > 100 µM (inactive), the GI50 (SNB-19) was > 100 µM (inactive) and the GI50 (SF-268) was > 100 µM (inactive). For the same molecule, the GI50 (KM12) was > 100 µM (inactive), the GI50 (M19-MEL) was > 100 µM (inactive) and the GI50 (UO-31) was > 100 µM (inactive). The GI50 (HCT-116) was > 100 µM (inactive), the GI50 (HCT-15) was greater than 100 µM and the GI50 (COLO 205) was > 100 µM (inactive). For the same molecule, the GI50 (SN12C) was > 100 µM (inactive), the GI50 (DLD-1) was > 100 µM (inactive) and the GI50 (MOLT-4) was > 100 µM (inactive). The GI50 (UACC-62) was > 100 µM (inactive), the GI50 (CAKI-1) was > 100 µM (inactive) and the GI50 (HT-29) was > 100 µM (inactive). The GI50 (OVCAR-5) was > 100 µM (inactive), the GI50 (DMS-273) was > 100 µM (inactive) and the GI50 (EKVX) was > 100 µM (inactive). For the same molecule, the GI50 (KM-20L2) was > 100 µM (inactive), the GI50 (SF-295) was > 100 µM (inactive) and the GI50 (SK-MEL-28) was > 100 µM (inactive). The GI50 (OVCAR-8) was > 100 µM (inactive), the GI50 (LXFL 529) was > 100 µM (inactive) and the GI50 (SW-620) was > 100 µM (inactive). The GI50 (NCI-H226) was > 100 µM (inactive), the GI50 (OVCAR-3) was > 100 µM (inactive) and the GI50 (ACHN) was > 100 µM (inactive). The GI50 (SK-MEL-5) was > 100 µM (inactive), the GI50 (M14) was > 100 µM (inactive) and the GI50 (NCI-H460) was > 100 µM (inactive). The GI50 (U-251) was > 100 µM (inactive), the GI50 (UACC-257) was > 100 µM (inactive) and the GI50 (Malme-3M) was > 100 µM (inactive). For the same molecule, the GI50 (CCRF-CEM) was > 100 µM (inactive).

For CC(=O)c1ccc2c(c1)CC1(C2)Cc2ccccc2C1=O (stereo not drawn), the GI50 (TK-10) was 19.4 µM (inactive), the GI50 (786-0) was 77.8 µM (inactive) and the GI50 (SK-OV-3) was > 100 µM (inactive). For the same molecule, the GI50 (RXF 393) was 42.5 µM (inactive), the GI50 (LOX IMVI) was 36.1 µM (inactive) and the GI50 (NCI-H522) was 21.5 µM (inactive). The GI50 (A549) was 37.8 µM (inactive), the GI50 (MDA-MB-435) was 34.2 µM (inactive) and the GI50 (RPMI-8226) was 33.6 µM (inactive). The GI50 (SF-539) was > 100 µM (inactive), the GI50 (K562) was 36.1 µM (inactive) and the GI50 (SR) was 20.8 µM (inactive). For the same molecule, the GI50 (HCC 2998) was 40.6 µM (inactive), the GI50 (PC-3) was 35.2 µM (inactive) and the GI50 (BT-549) was 43.4 µM (inactive). For the same molecule, the GI50 (HOP-62) was > 100 µM (inactive), the GI50 (NCI-H23) was 78.9 µM (inactive) and the GI50 (OVCAR-4) was 31.4 µM (inactive). The GI50 (SNB-75) was 34.5 µM (inactive), the GI50 (SK-MEL-2) was 71 µM (inactive) and the GI50 (SNB-19) was > 100 µM (inactive). For the same molecule, the GI50 (SF-268) was 74 µM (inactive), the GI50 (DU-145) was > 100 µM (inactive) and the GI50 (MCF7) was 26.7 µM (inactive). The GI50 (KM12) was 43.3 µM (inactive), the GI50 (UO-31) was 42.4 µM (inactive) and the GI50 (HCT-116) was 44.1 µM (inactive). The GI50 (HCT-15) was 51.5 µM, the GI50 (NCI/ADR-RES) was 16 µM (inactive) and the GI50 (COLO 205) was 34 µM (inactive). For the same molecule, the GI50 (SN12C) was 69 µM (inactive), the GI50 (MOLT-4) was 29.6 µM (inactive) and the GI50 (HL-60) was 25.1 µM (inactive). For the same molecule, the GI50 (UACC-62) was 55.6 µM (inactive), the GI50 (CAKI-1) was 33.1 µM (inactive) and the GI50 (MDA-N) was 45.1 µM (inactive). The GI50 (HT-29) was 14.6 µM (inactive), the GI50 (OVCAR-5) was > 100 µM (inactive) and the GI50 (EKVX) was 24.2 µM (inactive). The GI50 (IGROV-1) was 79.1 µM (inactive), the GI50 (SF-295) was 56 µM (inactive) and the GI50 (T47D) was 25.6 µM (inactive). The GI50 (SK-MEL-28) was 64.3 µM (inactive), the GI50 (OVCAR-8) was 37.9 µM (inactive) and the GI50 (HOP-92) was 22.4 µM (inactive). The GI50 (SW-620) was > 100 µM (inactive), the GI50 (NCI-H226) was 85.3 µM (inactive) and the GI50 (OVCAR-3) was 50.9 µM (inactive). For the same molecule, the GI50 (Hs-578T) was 39.8 µM (inactive), the GI50 (A498) was > 100 µM (inactive) and the GI50 (ACHN) was 54 µM (inactive). The GI50 (SK-MEL-5) was 21.8 µM (inactive), the GI50 (M14) was 31 µM (inactive) and the GI50 (NCI-H460) was 62.1 µM (inactive). The GI50 (U-251) was 67.5 µM (inactive), the GI50 (UACC-257) was 15.5 µM (inactive) and the GI50 (Malme-3M) was 28.4 µM (inactive). For the same molecule, the GI50 (MDA-MB-231) was 57.3 µM (inactive) and the GI50 (CCRF-CEM) was 29.5 µM (inactive).
